Laboratory results reported in US20060094786A1, “Treating syndrome X with substituted tetralins and indanes” (priority 2002, published 2006).

Target: T1, PPARδ (Homo sapiens, UniProt Q03181)
T1 sequence (Q03181 171-441 limits assumed): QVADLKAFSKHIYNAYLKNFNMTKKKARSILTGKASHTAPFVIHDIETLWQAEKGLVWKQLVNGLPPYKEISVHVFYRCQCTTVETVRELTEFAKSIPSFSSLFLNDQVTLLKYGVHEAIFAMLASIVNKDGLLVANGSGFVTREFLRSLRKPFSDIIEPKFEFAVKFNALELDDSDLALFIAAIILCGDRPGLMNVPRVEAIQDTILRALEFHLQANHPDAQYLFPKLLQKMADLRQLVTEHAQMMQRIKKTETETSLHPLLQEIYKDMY
Experiment: Transfection Assay for PPARδ Receptors (PPAR-Gal4 receptor / Gal4-Luciferase Reporter, HEK293 cells)
Assay type: cell-based
Details: for PPARδ FI: fold induction, unbracketed values, PPARδ standard FI = 36.1
Description: Transfection Assay for PPARδ Receptors
HEK293 cells were grown in DMEM/F-12 Media supplemented with 10% FBS and glutamine (GIBCOBRL). The cells were co-transfected with DNA for PPAR-Gal4 receptor and Gal4-Luciferase Reporter using the DMRIE-C Reagent. On the following day, the DNA-containing medium were replaced with 5% Charcoal treated FBS growth medium. After six hours, cells were seeded in 96 well plate and incubated at 37° C. in CO2 incubator overnight. Cells were challenged by test compounds and incubated for 24 hours at 37° C. in 5% CO2 incubator. Luciferase activity was assayed using the Steady-Glo Luciferase Assay Kit from Promega. DMRIE-C Reagent was purchased from GIBCO Cat. No. 10459-014. OPTI-MEM I Reduced Serum Medium was purchased from GIBCO Cat. No. 31985. Steady-Glo Luciferase Assay Kit was obtained from Promega Part# E254B.

Row | Compound | PPARδ FI | EC50 (bracketed values)
1 | CCCCCCN(C(=O)Nc1ccc(SC(F)(F)F)cc1)C1Cc2ccc(SC(C)(C)C(=O)O)cc2C1 (stereo not drawn) [Example 15, 2-Methyl-2-{2-[1-hexyl-3-(4-trifluoromethylsulfanylphenyl)ureido]indan-5-ylsulfanyl}propionic acid] | 1.2 | –
2 | CCN(C(=O)Nc1ccc(OC(F)(F)F)c(Br)c1)C1Cc2ccc(SC(C)(C)C(=O)O)cc2C1 (stereo not drawn) [Example 25, 2-{2-[3-(3-Bromo-4-trifluoromethoxyphenyl)-1-ethylureido]indan-5-ylsulfanyl}-2-methylpropionic acid] | 4.5 | –
3 | CC(C)(Sc1ccc2c(c1)CC(N(CCCC1CCCC1)C(=O)Nc1ccccc1)C2)C(=O)O (stereo not drawn) [Example 37, 2-{2-[1-(3-Cyclopentylpropyl)-3-phenylureido]indan-5-ylsulfanyl}-2-methylpropionic acid] | 1.9 | –
4 | CC(C)(Sc1ccc2c(c1)CC(N(CCCC1CCCC1)C(=O)Nc1ccc(OC(F)(F)F)cc1)C2)C(=O)O (stereo not drawn) [Example 28, 2-{2-[1-(3-Cyclopentylpropyl)-3-(4-trifluoromethoxyphenyl)ureido]indan-5-ylsulfanyl}-2-methylpropionic acid] | 8.2 | –
5 | CCCN(C(=O)Nc1ccc(OC(F)(F)F)cc1)C1CCc2ccc(SC(C)(C)C(=O)O)cc2C1 (stereo not drawn) [Example 46, 2-Methyl-2-{7-[1-propyl-3-(4-trifluoromethoxyphenyl)ureido}-5,6,7,8-tetrahydronaphthalen-2-ylsulfanyl}propionic acid] | 6.0 | –
6 | CCCN(C(=O)Nc1ccc(OC)cc1)C1Cc2ccc(SC(C)(C)C(=O)O)cc2C1 (stereo not drawn) [Example 32, 2-{2-[3-(4-Methoxyphenyl)-1-propylureido]indan-5-ylsulfanyl}-2-methylpropionic acid] | 1.5 | –
7 | CCCCCN(C(=O)Nc1ccc2ccccc2c1)C1Cc2ccc(SC(C)(C)C(=O)O)cc2C1 (stereo not drawn) [Example 39, 2-Methyl-2-[2-(3-naphthalen-2-yl-1-pentylureido)indan-5-ylsulfanyl]propionic acid] | 9.3 | –
8 | CCCN(C(=O)Nc1ccc(C(F)(F)F)cc1)C1Cc2ccc(SC(C)(C)C(=O)O)cc2C1 (stereo not drawn) [Example 35, 2-Methyl-2-{2-[1-propyl-3-(4-trifluoromethylphenyl)ureido]indan-5-ylsulfanyl}-propionic acid] | 5.6 | –
9 | C=CCCCN(C(=O)Nc1ccc(OC(F)(F)F)cc1)C1Cc2ccc(SC(C)(C)C(=O)O)cc2C1 (stereo not drawn) [Example 19, 2-Methy-2-{2-[1-pent-4-enyl-3-(4-trifluoromethoxyphenyl)ureido]indan-5-ylsulfanyl}propionic acid] | 1.4 | –
10 | CCCN(C(=O)Nc1cc(C)cc(C)c1)C1Cc2ccc(SC(C)(C)C(=O)O)cc2C1 (stereo not drawn) [Example 33, 2-{2-[3-(3,5-Dimethylphenyl)-1-propylureido]indan-5-ylsulfanyl}-2-methylpropionic acid] | 0.8 | –
11 | CCN(C(=O)Nc1cccc(OC(F)(F)F)c1)C1Cc2ccc(SC(C)(C)C(=O)O)cc2C1 (stereo not drawn) [Example 26, 2-{2-[1-Ethyl-3-(3-trifluoromethoxyphenyl)ureido]indan-5-ylsulfanyl}-2-methylpropionic acid] | 2.1 | –
12 | CCN(C(=O)Nc1ccc(C(C)(C)C)cc1)C1CCc2cc(SC(C)(C)C(=O)O)c(OC)cc2C1 (stereo not drawn) [Example 49, 2-{6-[3-(4-tert-Butylphenyl)1-ethylureido]-3-methoxy-5,6,7,8-tetrahydronaphthalen-2-ylsulfanyl}-2-methylpropionic acid] | – | > 3 µM
